Data taken from patent US20240018145A1, “[…]-DEPENDENT EN[…] TREATING OR […]” (priority 2020, published 2024).

These molecules were tested on FLU A (PR/8/34) (assay: Flu A Neuraminidase Antiviral Assay). Details: not given.
Type: cell-based
For `CN1C(=O)c2c(O)c(=O)ccn2N2C(c3cc(F)ccc3OC(F)F)CCCC12` (single isomer, unassigned) [Compound 17B, 1-(2-(difluoromethoxy)-5-fluorophenyl)-7-hydroxy-5-methyl-1,2,3,4,4a,5-hexahydrodipyrido[1,2-b:2′,1′-f][1,2,4]triazine-6,8-dione], the EC50 was 103 nM.
For `CN1C(=O)c2c(O)c(=O)ccn2N2C(c3ccccc3C3CC3)C(CC(F)(F)F)CCC12` (single isomer, unassigned) [Compound 107A, 1-(2-cyclopropylphenyl)-7-hydroxy-5-methyl-2-(2,2,2-trifluoroethyl)-1,2,3,4,4a,5-hexahydrodipyrido[1,2-b:2′,1′-f][1,2,4]triazine-6,8-dione], the EC50 was 4800 nM.
With `CCN1C(=O)c2c(O)c(=O)cc(COC)n2N2C(c3ccccc3)C(CC(F)(F)F)CCC12` (stereo not drawn) [Compound 131B, 5-ethyl-7-hydroxy-10-(methoxymethyl)-1-phenyl-2-(2,2,2-trifluoroethyl)-1,2,3,4,4a,5-hexahydrodipyrido[1,2-b:2′,1′-f][1,2,4]triazine-6,8-dione] the EC50 was > 810 nM.
Molecule `CN1C(=O)c2c(O)c(=O)ccn2N2C1CCC(C)(CC(F)(F)F)C2c1ccccc1` (single isomer, unassigned) [Compound 71A, 7-hydroxy-2,5-dimethyl-1-phenyl-2-(2,2,2-trifluoroethyl)-1,2,3,4,4a,5-hexahydrodipyrido[1,2-b:2′,1′-f][1,2,4]triazine-6,8-dione] has an EC50 of 5910 nM.
Work on `CN1C(=O)c2c(O)c(=O)ccn2N2C1CCCC2(C)c1c(F)cccc1F` (single isomer, unassigned) [Compound 23B, 1-(2,6-difluorophenyl)-7-hydroxy-1,5-dimethyl-1,2,3,4,4a,5-hexahydrodipyrido[1,2-b:2′,1′-f][1,2,4]triazine-6,8-dione] yielded an EC50 of 2.6 nM.
`CN1C(=O)c2c(O)c(=O)ccn2N2C(c3ccc(Cl)c(F)c3)CCCC12` (single isomer, unassigned) [Compound 3B, 1-(4-chloro-3-fluorophenyl)-7-hydroxy-5-methyl-1,2,3,4,4a,5-hexahydrodipyrido[1,2-b:2′,1′-f][1,2,4]triazine-6,8-dione] was tested, and the EC50 was > 2700 nM.
`CCCC1CCC2N(CC)C(=O)c3c(O)c(=O)ccn3N2C1c1ccccc1F` (single isomer, unassigned) [Compound 96A, 5-ethyl-1-(2-fluorophenyl)-7-hydroxy-2-propyl-1,2,3,4,4a,5-hexahydrodipyrido[1,2-b:2′,1′-f][1,2,4]triazine-6,8-dione] was tested, and the EC50 was > 810 nM.
In the case of `O=C1c2c(O)c(=O)ccn2N2C(c3ccccc3)C(CC3(C(F)(F)F)CC3)CCC2N1CC1CC1` (single isomer, unassigned) [Compound 90B, 5-(cyclopropylmethyl)-7-hydroxy-1-phenyl-2-((1-(trifluoromethyl)cyclopropyl)methyl)-1,2,3,4,4a,5-hexahydrodipyrido[1,2-b:2′,1′-f][1,2,4]triazine-6,8-dione], the EC50 is reported as 29.3 nM.
With `CCN1C(=O)c2c(O)c(=O)ccn2N2C1CCC1(CCC(F)(F)CC1)C2c1ccccc1` (single isomer, unassigned) [Compound 76B] the EC50 was 2 nM.
`CCC1(c2ccccc2)CCCC2N(C)C(=O)c3c(O)c(=O)ccn3N21` (single isomer, unassigned) [Compound 22D, 1-ethyl-7-hydroxy-5-methyl-1-phenyl-1,2,3,4,4a,5-hexahydrodipyrido[1,2-b:2′,1′-f][1,2,4]triazine-6,8-dione] showed an EC50 of 11 nM.
For `CCC1(c2ccccc2)CCC2N(C)C(=O)c3c(O)c(=O)ccn3N21` (single isomer, unassigned) [Compound 62B, 1-ethyl-6-hydroxy-4-methyl-1-phenyl-2,3,3a,4-tetrahydro-1H-pyrido[2,1-f]pyrrolo[1,2-b][1,2,4]triazine-5,7-dione], the EC50 was > 8100 nM.
For `CN1C(=O)c2c(O)c(=O)ccn2N2C(c3cccc(F)c3)C(CC(F)(F)F)CCC12` (single isomer, unassigned) [Compound 121B, 1-(3-fluorophenyl)-7-hydroxy-5-methyl-2-(2,2,2-trifluoroethyl)-1,2,3,4,4a,5-hexahydrodipyrido[1,2-b:2′,1′-f][1,2,4]triazine-6,8-dione], the EC50 was 5.8 nM.
For `CC1CCC2N(C)C(=O)c3c(O)c(=O)ccn3N2C1(C)c1ccccc1` (single isomer, unassigned) [Compound 29B, 7-hydroxy-1,2,5-trimethyl-1-phenyl-1,2,3,4,4a,5-hexahydrodipyrido[1,2-b:2′,1′-f][1,2,4]triazine-6,8-dione], the EC50 was 286 nM.
With `Cc1cccc(F)c1C1C(CC(F)(F)F)CCC2N(C)C(=O)c3c(O)c(=O)ccn3N12` (single isomer, unassigned) [Compound 77B, 1-(2-fluoro-6-methylphenyl)-7-hydroxy-5-methyl-2-(2,2,2-trifluoroethyl)-1,2,3,4,4a,5-hexahydrodipyrido[1,2-b:2′,1′-f][1,2,4]triazine-6,8-dione] the EC50 was 3.2 nM.
With `CCCC1CCC2N(C)C(=O)c3c(O)c(=O)ccn3N2C1c1ccccc1Cl` (stereo not drawn) [Compound 65A, 1-(2-chlorophenyl)-7-hydroxy-5-methyl-2-propyl-1,2,3,4,4a,5-hexahydrodipyrido[1,2-b:2′,1′-f][1,2,4]triazine-6,8-dione] the EC50 was 396 nM.
Work on `CCC1(c2ccccc2)CCC2N(C)C(=O)c3c(O)c(=O)ccn3N21` (single isomer, unassigned) [Compound 62C, 1-ethyl-6-hydroxy-4-methyl-1-phenyl-2,3,3a,4-tetrahydro-1H-pyrido[2,1-f]pyrrolo[1,2-b][1,2,4]triazine-5,7-dione] yielded an EC50 of 7490 nM.
In the case of `CCC1(c2ccccc2)CCCC2N(C)C(=O)c3c(O)c(=O)ccn3N21` (single isomer, unassigned) [Compound 22A, 1-ethyl-7-hydroxy-5-methyl-1-phenyl-1,2,3,4,4a,5-hexahydrodipyrido[1,2-b:2′,1′-f][1,2,4]triazine-6,8-dione], the EC50 is reported as > 8100 nM.
`CN1C(=O)c2c(O)c(=O)ccn2N2C(c3ccccc3)C(Cc3ccccc3)CCC12` (single isomer, unassigned) [Compound 117B, 2-benzyl-7-hydroxy-5-methyl-1-phenyl-1,2,3,4,4a,5-hexahydrodipyrido[1,2-b:2′,1′-f][1,2,4]triazine-6,8-dione] showed an EC50 of 113 nM.
For `CN1C(=O)c2c(O)c(=O)ccn2N2C(c3ccccc3)CCCC12` (single isomer, unassigned) [Compound 1B, 7-hydroxy-5-methyl-1-phenyl-1,2,3,4,4a,5-hexahydrodipyrido[1,2-b:2′,1′-f][1,2,4]triazine-6,8-dione], the EC50 was 39.6 nM.
With `Cc1ccc(C2(C)CCCC3N(CC(F)(F)F)C(=O)c4c(O)c(=O)ccn4N32)nc1` (single isomer, unassigned) [Compound 49A, 7-hydroxy-1-methyl-1-(5-methylpyridin-2-yl)-5-(2,2,2-trifluoroethyl)-1,2,3,4,4a,5-hexahydrodipyrido[1,2-b:2′,1′-f][1,2,4]triazine-6,8-dione] the EC50 was > 8100 nM.
With `CCN1C(=O)c2c(O)c(=O)cc(COC)n2N2C(c3ccccc3)C(CC(F)(F)F)CCC12` (stereo not drawn) [Compound 131E, 5-ethyl-7-hydroxy-10-(methoxymethyl)-1-phenyl-2-(2,2,2-trifluoroethyl)-1,2,3,4,4a,5-hexahydrodipyrido[1,2-b:2′,1′-f][1,2,4]triazine-6,8-dione] the EC50 was 6.8 nM.
For `CC1(c2ccccc2)CCCC2N(CC3CC(F)(F)C3)C(=O)c3c(O)c(=O)ccn3N21` (single isomer, unassigned) [Compound 45A, 5-((3,3-difluorocyclobutyl)methyl)-7-hydroxy-1-methyl-1-phenyl-1,2,3,4,4a,5-hexahydrodipyrido[1,2-b:2′,1′-f][1,2,4]triazine-6,8-dione], the EC50 was > 8100 nM.
`CN1C(=O)c2c(O)c(=O)ccn2N2C(c3ccc(F)cc3)C(CC(F)(F)F)CCC12` (single isomer, unassigned) [Compound 122A, 1-(4-fluorophenyl)-7-hydroxy-5-methyl-2-(2,2,2-trifluoroethyl)-1,2,3,4,4a,5-hexahydrodipyrido[1,2-b:2′,1′-f][1,2,4]triazine-6,8-dione] showed an EC50 of 343 nM.
`CC1CC(c2ccccc2)N2C(C1)N(C)C(=O)c1c(O)c(=O)ccn12` (single isomer, unassigned) [Compound 6A, 7-hydroxy-3,5-dimethyl-1-phenyl-1,2,3,4,4a,5-hexahydrodipyrido[1,2-b:2′,1′-f][1,2,4]triazine-6,8-dione] showed an EC50 of 372 nM.
Molecule `CN1C(=O)c2c(O)c(=O)ccn2N2C(c3ccc(Cl)c(F)c3)CCCC12` (single isomer, unassigned) [Compound 3A, 1-(4-chloro-3-fluorophenyl)-7-hydroxy-5-methyl-1,2,3,4,4a,5-hexahydrodipyrido[1,2-b:2′,1′-f][1,2,4]triazine-6,8-dione] has an EC50 of 1020 nM.
Molecule `CN1C(=O)c2c(O)c(=O)ccn2N2C(c3c(F)cccc3F)C(CC(F)(F)F)CCC12` (single isomer, unassigned) [Compound 123B, 1-(2,6-difluorophenyl)-7-hydroxy-5-methyl-2-(2,2,2-trifluoroethyl)-1,2,3,4,4a,5-hexahydrodipyrido[1,2-b:2′,1′-f][1,2,4] triazine-6,8-dione] has an EC50 of 4.2 nM.
In the case of `CCCC1CCC2C(n3ccc(=O)c(O)c3C(=O)N2C)C1(O)c1ccccc1` (single isomer, unassigned) [Compound 166B, 1,7-dihydroxy-5-methyl-1-phenyl-2-propyl-1,3,4,4a,5,11a-hexahydro-2H-pyrido[1,2-a]quinoxaline-6,8-dione], the EC50 is reported as > 8100 nM.

Same assay, conditions: MDCK, 48 h
With `COCCN1C(=O)c2c(O)c(=O)ccn2N2C(c3ccc(F)cc3)CCCC12` (single isomer, unassigned) [Compound 4A, 1-(4-fluorophenyl)-7-hydroxy-5-(2-methoxyethyl)-1,2,3,4,4a,5-hexahydrodipyrido[1,2-b:2′,1′-f][1,2,4]triazine-6,8-dione] the EC50 was > 8100 nM.
For `COCCCO[C@@H]1CC[C@H]2N(C)C(=O)c3c(O)c(=O)ccn3N2[C@@H]1c1ccccc1` [Compound 163, (1R,2R,4aS)-7-hydroxy-2-(3-methoxypropoxy)-5-methyl-1-phenyl-1,2,3,4,4a,5-hexahydrodipyrido[1,2-b:2′,1′-f][1,2,4]triazine-6,8-dione], the EC50 was 270 nM.
`CN1C(=O)c2c(O)c(=O)ccn2N2C(c3ccccc3)CCC12` (single isomer, unassigned) [Compound 60A, 6-hydroxy-4-methyl-1-phenyl-2,3,3a,4-tetrahydro-1H-pyrido[2,1-f]pyrrolo[1,2-b][1,2,4]triazine-5,7-dione] was tested, and the EC50 was > 8100 nM.
